Test results reported in patent US4321212A, “Method for preparing an optically active α-cyano-3-phenoxybenzyl 2-(4-substituted-phenyl)isovalerate” (Sumitomo Chemical Company Limited, priority 1980, dated 1982).
Converted amounts (≈) assume the structure as drawn.

How the values were obtained:
[1] = system: houseflies; assay: Topical application to female adult WHO-strain houseflies (Test Example 2); type: in vivo, housefly, WHO-strain (standard susceptible strain); details: 0.5 μl acetone solution to the thorax, female adults, 24 hours
Experimental: The compounds of this invention, (1), (2), (3), (4) and (5), were diluted with acetone to a predetermined concentration, and 0.5 μl of each solution was topically applied to the thorax of female adult WHO-strain houseflies (standard susceptible strain) with a microsyringe. The flies were placed in plastic cups each having a diameter of 11 cm in which a bait (3% sugar water) was placed. 24 hours later, the alive and dead was evaluated to determine the LD50 (median lethal dose) (μg/housefly).

[2] = system: carmine mites; assay: Spray test against carmine mites on potted kidney beans (Test Example 3); type: in vivo, carmine mite; details: 20% emulsifiable concentrate diluted 500-fold with water, 10 ml/pot, after 10 days
Experimental: 10 to 15 female adult carmine mites were placed on each leaf of potted kidney beans (2-leaf stage) 9 days old after seeding. After standing in a constant temperature room at 27° C. for a week, a lot of mites in various growth stages were observed on the beans. Each of the emulsifiable concentrates prepared from the compounds of this invention, (1), (2), (3), (4), and (5), in the procedures described in Formulation Example 2 was diluted 500-fold with water and sprayed to the beans on a turntable in a proportion of 10 ml/pot.

[3] = system: tobacco cutworms; assay: Leaf-dip test on fourth instar larvae of tobacco cutworms (Test Example 1); type: in vivo, tobacco cutworm; details: foliar, cabbage leaf dip 1 minute, emulsifiable concentrate diluted with water, 24 hours, 10 larvae per group, three replications, read-out: LC50 (concentration required for 50% death)
Experimental: Each of the emulsifiable concentrates prepared from the compounds of this invention, (4) and (5), in the procedures described in Formulation Example 2 was diluted with water to a pre-determined concentration, and mixed with 3,000 times by weight based on the diluted solution of a spreader (Shin-Rino, a registered trademark of Nippon Noyaku Co., Ltd., for a mixture containing 20% of an alkylphenol polyethylene glycol ether and 12% of a salt of lignin sulfonic acid).
The dried leaves were placed in plastic cups (diameter 10 cm, height 4 cm) at a rate of 2 leaves/cup, and the fourth instar larvae of tobacco cutworms were liberated therein. The dead and alive was evaluated after 24 hours and the values of LC50 (concentration required for 50% death) were obtained.
Experiments of three replications were carried out using 10 larvae per group.

Compound | LD50 (median lethal dose) [1] [μg/housefly] | damage of the kidney beans by the mites [2] | LC50 [3] [µg/mL]
CC(C)C(C(=O)OC(C#N)c1cccc(Oc2ccccc2)c1)c1ccc(OC(F)F)cc1 (racemic) [(b), reference compound] | 0.15 |  | 
COc1ccc(C(C(=O)OC(C#N)c2cccc(Oc3ccccc3)c2)C(C)C)cc1 (racemic) [Reference Compound (a), reference compound] | 0.35 |  | 
COc1ccc([C@@H](C(=O)OC(C#N)c2cccc(Oc3ccccc3)c2)C(C)C)cc1 (stereo partly drawn) [Compound (1), α-cyano-3-phenoxybenzyl S-(+)-2-(4-methoxyphenyl)isovalerate] | 0.18 | hardly observed | 
COc1ccc([C@@H](C(=O)OC(C#N)c2cccc(Oc3ccccc3)c2)C(C)C)cc1 (stereo partly drawn) [Compound (2), α-cyano-3-phenoxybenzyl S-(+)-2-(4-methoxyphenyl)isovalerate] | 0.13 | hardly observed | 
COc1ccc([C@@H](C(=O)O[C@H](C#N)c2cccc(Oc3ccccc3)c2)C(C)C)cc1 [Compound (3), (S)-α-cyano-3-phenoxybenzyl S-(+)-2-(4-methoxyphenyl)isovalerate] | 0.10 | hardly observed | 
CC(C)[C@H](C(=O)O[C@H](C#N)c1cccc(Oc2ccccc2)c1)c1ccc(OC(F)F)cc1 [Compound (4), α-cyano-3-phenoxybenzyl S-(+)-2-(4-difluoromethoxyphenyl)isovalerate] | 0.038 | hardly observed | 5.9 (≈ 13.1 µM)
CC(C)[C@H](C(=O)OC(C#N)c1cccc(Oc2ccccc2)c1)c1ccc(OC(F)F)cc1 (stereo partly drawn) [Compound (5), α-cyano-3-phenoxybenzyl S-(+)-2-(4-difluoromethoxyphenyl)isovalerate] | 0.042 | hardly observed | 6.9 (≈ 15.3 µM)
